Consider nine molecules from patent US10988445B2 (AstraZeneca AB, priority 2015, dated 2021).

This experiment concerns human TH17 cells. The experiment is described as follows: Inhibition of IL-17 release from human TH17 cells. Format: cell-based. The following applies: Homo sapiens, 96 h, isolated human TH17 cells, 4 days culture, IL-17A by HTRF; read-out: pIC50 IL-17 release (converted). An excerpt:
Inhibition of IL-17 Release from Human TH17 Cells (IL-17 Release)
This test is designed to screen compounds for their inhibitory effect on the release of IL-17 from isolated and cultured human TH17 cells.
Peripheral blood mononuclear cells (PBMC) were isolated from heparin treated human whole blood fromhealthy donors by density gradient centrifugation. TH17 cells (CD4+CXCR3-CCR6+) were enriched using a human TH17 Cell Enrichment Kit (Stemcell Technologies) according to the manufacturer's protocol. […] On day 4 supernatants were collected and IL-17A was measured using a Human IL-17 HTRF Assay kit (Cisbio Bioassays) according to the manufacturer's protocol. […] Results
A general note: In TR-FRET formats the signal depends on donor and acceptor labels being close together.
As for `O=C(Nc1ccc(C(O)(C(F)(F)F)C(F)(F)F)cc1)C1c2ccc(S(=O)(=O)CC3CC3)cc2CN1C(=O)CC1(O)CC1` (stereo not drawn) [Example 206, 5-[(Cyclopropylmethyl)sulfonyl]-N-[4-(1,1,1,3,3,3-hexafluoro-2-hydroxypropan-2-yl)phenyl]-2-[(1-hydroxycyclopropyl)acetyl]-2,3-dihydro-1H-isoindole-1-carboxamide], the IC50 is 39.8 nM.
With `CC(C)(O)CC(=O)N1Cc2cc(S(=O)(=O)CC3CC3)ccc2C1C(=O)Nc1ccc(C(O)(C(F)(F)F)C(F)(F)F)cc1` (stereo not drawn) [Example 207, 5-[(Cyclopropylmethyl)sulfonyl]-N-[4-(1,1,1,3,3,3-hexafluoro-2-hydroxypropan-2-yl)phenyl]-2-(3-hydroxy-3-methylbutanoyl)-2,3-dihydro-1H-isoindole-1-carboxamide] the figure was 39.8 nM; with `O=C(Nc1ccc(C(O)(C(F)(F)F)C(F)(F)F)cc1)C1c2ccc(S(=O)(=O)CC3CC3)cc2CN1C(=O)C1CCCO1` (stereo not drawn) [Example 208, 5-[(Cyclopropylmethyl)sulfonyl]-N-[4-(1,1,1,3,3,3-hexafluoro-2-hydroxypropan-2-yl)phenyl]-2-(tetrahydrofuran-2-ylcarbonyl)-2,3-dihydro-1H-isoindole-1-carboxamide], 20 nM.
For `N#CC1(C(=O)N2Cc3cc(S(=O)(=O)CC4CC4)ccc3C2C(=O)Nc2ccc(C(O)(C(F)(F)F)C(F)(F)F)cc2)CC1` (stereo not drawn) [Example 209, 2-[(1-Cyanocyclopropyl)carbonyl]-5-[(cyclopropylmethyl)sulfonyl]-N-[4-(1,1,1,3,3,3-hexafluoro-2-hydroxypropan-2-yl)phenyl]-2,3-dihydro-1H-isoindole-1-carboxamide], the IC50 was 25.1 nM.
`O=C(Nc1ccc(C(O)(C(F)(F)F)C(F)(F)F)cc1)C1c2ccc(S(=O)(=O)CC3CC3)cc2CN1C(=O)C1CCOC1` (stereo not drawn) [Example 210, 5-[(Cyclopropylmethyl)sulfonyl]-N-[4-(1,1,1,3,3,3-hexafluoro-2-hydroxypropan-2-yl)phenyl]-2-(tetrahydrofuran-3-ylcarbonyl)-2,3-dihydro-1H-isoindole-1-carboxamide]: the IC50 is 25.1 nM.
As for `NC(C(=O)N1Cc2cc(S(=O)(=O)CC3CC3)ccc2C1C(=O)Nc1ccc(C(O)(C(F)(F)F)C(F)(F)F)cc1)C1CC1` (stereo not drawn) [Example 211, 2-[Amino(cyclopropyl)acetyl]-5-[(cyclopropylmethyl)sulfonyl]-N-[4-(1,1,1,3,3,3-hexafluoro-2-hydroxypropan-2-yl)phenyl]-2,3-dihydro-1H-isoindole-1-carboxamide], the figure is 200 nM.
For the molecule `COC1(C(=O)N2Cc3cc(S(=O)(=O)CC4CC4)ccc3C2C(=O)Nc2ccc(C(O)(C(F)(F)F)C(F)(F)F)cc2)CC1` (stereo not drawn) [Example 212, 5-[(Cyclopropylmethyl)sulfonyl]-N-[4-(1,1,1,3,3,3-hexafluoro-2-hydroxypropan-2-yl)phenyl]-2-[(1-methoxycyclopropyl)carbonyl]-2,3-dihydro-1H-isoindole-1-carboxamide], the IC50 was 15.8 nM.
As to `COC(=O)N1Cc2cc(S(=O)(=O)CC3CC3)ccc2C1C(=O)Nc1ccc(C(O)(C(F)(F)F)C(F)(F)F)cc1` (stereo not drawn) [Example 213, Methyl 5-[(cyclopropylmethyl)sulfonyl]-1-{[4-(1,1,1,3,3,3-hexafluoro-2-hydroxypropan-2-yl)phenyl]carbamoyl}-1,3-dihydro-2H-isoindole-2-carboxylate], the IC50 is 7.94 nM.
As for `O=C(Nc1ccc(C(O)(C(F)(F)F)C(F)(F)F)cc1)C1c2ccc(S(=O)(=O)CC3CC3)cc2CN1C(=O)C(F)(F)C1CC1` (stereo not drawn) [Example 214, 2-[Cyclopropyl(difluoro)acetyl]-5-[(cyclopropylmethyl)sulfonyl]-N-[4-(1,1,1,3,3,3-hexafluoro-2-hydroxypropan-2-yl)phenyl]-2,3-dihydro-1H-isoindole-1-carboxamide], the IC50 was 10 nM.
